The values that follow are results of earlier work, collected in US9376416B2, “Composition containing scirpusin B, and process for producing composition containing scirpusin B” (MORINAGA & CO., LTD., priority 2010, dated 2016).

One series concerns HIV. The conditions noted are these: reported in Non-Patent Citation 1.
For series [1] the following is noted: reported in Non-Patent Citation 2.
The next series has as its system α-amylase. The settings on record: reported in Non-Patent Citation 3 (mouse α-amylase).
The target of another series is xanthine oxidase (Homo sapiens, UniProt P47989). The settings on record: reported in Non-Patent Citation 4.
Sequence of xanthine oxidase (P47989 whole entry, species assumed): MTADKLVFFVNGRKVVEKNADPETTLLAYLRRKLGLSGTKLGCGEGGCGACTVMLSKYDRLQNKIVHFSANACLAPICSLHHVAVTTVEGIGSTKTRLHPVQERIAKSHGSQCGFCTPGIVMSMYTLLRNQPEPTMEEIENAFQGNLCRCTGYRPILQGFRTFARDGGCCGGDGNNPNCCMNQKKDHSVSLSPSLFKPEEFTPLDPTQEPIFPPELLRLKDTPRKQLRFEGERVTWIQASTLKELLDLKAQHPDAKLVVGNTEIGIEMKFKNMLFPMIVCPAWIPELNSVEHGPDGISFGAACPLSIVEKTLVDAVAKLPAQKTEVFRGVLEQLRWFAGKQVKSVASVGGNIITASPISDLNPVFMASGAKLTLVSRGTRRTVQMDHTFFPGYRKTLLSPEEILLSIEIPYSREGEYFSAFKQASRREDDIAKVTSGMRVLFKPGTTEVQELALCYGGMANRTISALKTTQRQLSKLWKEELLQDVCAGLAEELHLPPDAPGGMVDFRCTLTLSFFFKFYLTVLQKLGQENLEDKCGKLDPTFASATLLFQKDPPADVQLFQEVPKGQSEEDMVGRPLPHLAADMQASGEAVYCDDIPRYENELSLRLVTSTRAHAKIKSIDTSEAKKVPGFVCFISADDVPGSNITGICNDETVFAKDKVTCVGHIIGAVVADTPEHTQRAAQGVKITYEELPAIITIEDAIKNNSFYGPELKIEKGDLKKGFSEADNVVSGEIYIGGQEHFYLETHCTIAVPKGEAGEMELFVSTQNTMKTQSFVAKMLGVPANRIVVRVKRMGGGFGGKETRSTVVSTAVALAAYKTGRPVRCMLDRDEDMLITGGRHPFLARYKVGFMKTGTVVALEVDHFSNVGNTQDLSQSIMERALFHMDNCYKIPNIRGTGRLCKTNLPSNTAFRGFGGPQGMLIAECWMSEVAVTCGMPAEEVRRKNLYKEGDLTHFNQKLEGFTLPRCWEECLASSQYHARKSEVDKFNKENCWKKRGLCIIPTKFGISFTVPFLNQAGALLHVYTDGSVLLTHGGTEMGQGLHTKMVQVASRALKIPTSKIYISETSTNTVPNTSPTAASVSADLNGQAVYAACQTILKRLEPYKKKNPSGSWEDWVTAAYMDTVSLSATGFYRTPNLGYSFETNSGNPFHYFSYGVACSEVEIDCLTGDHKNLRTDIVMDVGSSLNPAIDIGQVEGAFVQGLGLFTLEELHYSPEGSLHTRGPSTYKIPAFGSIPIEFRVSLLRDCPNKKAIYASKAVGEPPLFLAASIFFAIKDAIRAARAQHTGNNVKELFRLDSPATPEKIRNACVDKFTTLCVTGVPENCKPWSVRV

Take `Oc1cc(O)cc(C2c3c(/C=C/c4ccc(O)c(O)c4)cc(O)cc3OC2c2ccc(O)c(O)c2)c1` (stereo not shown) [scirpusin B]: the anti-HIV activity result with HIV is given as “has anti-HIV activity”. Besides, the “superoxide anion removal activity” value in series [1] is listed as “has superoxide anion removal activity”. Further, in the series on α-amylase, the “α-amylase activity inhibitory activity” value is recorded as “has α-amylase activity inhibitory activity”. Moreover, the “xanthine oxidase inhibitory activity” value on xanthine oxidase was “has xanthine oxidase inhibitory activity”.
